Test results from patent publication US11247990B1, “Bicyclic fused pyridine compounds as inhibitors of TAM kinases” (ARRAY BIOPHARMA INC., priority 2017, dated 2022).
Counter-ions that a name gives are not always drawn.

Tests used:
Conditions in all cases: averaged IC50
[1] = target: His-tagged recombinant human AXL cytoplasmic domain (Homo sapiens (Human), UniProt P30530); assay: AXL Enzyme Assay (LanthaScreen Eu Kinase Binding, TR-FRET)
Method in brief: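 Compound displacement measured by TR-FRET after 60 min at 22 °C, using Eu-based LanthaScreen binding technology. Ratiometric emission converted to percent of control, fitted to a 4-parameter logistic curve, with IC50 at 50 POC.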

[2] = target: GST-tagged recombinant human TYRO3 kinase domain (Homo sapiens (Human), UniProt Q06418); assay: TYRO3 Enzyme Assay (LanthaScreen Eu Kinase Binding, TR-FRET)
GST-tagged recombinant human TYRO3 kinase domain, sequence (Q06418 518-790): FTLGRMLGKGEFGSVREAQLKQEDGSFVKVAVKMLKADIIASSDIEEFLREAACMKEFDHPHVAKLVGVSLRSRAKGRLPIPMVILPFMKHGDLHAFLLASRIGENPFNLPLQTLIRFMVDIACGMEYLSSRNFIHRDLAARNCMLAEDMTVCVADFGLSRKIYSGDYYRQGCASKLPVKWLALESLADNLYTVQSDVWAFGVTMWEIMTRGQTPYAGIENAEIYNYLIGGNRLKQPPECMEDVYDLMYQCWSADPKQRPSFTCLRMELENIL
Method in brief: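 LanthaScreen Eu binding (tracer displacement) format read by TR-FRET after 60 min at 22 °C. Emission ratio converted to percent of control; IC50 taken where a 4-parameter logistic fit crosses 50 POC.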

[3] = target: His-tagged recombinant human MER cytoplasmic domain (Homo sapiens (Human), UniProt Q12866); assay: MER Enzyme Assay (LanthaScreen Eu Kinase Binding, TR-FRET)
His-tagged recombinant human MER cytoplasmic domain, sequence (Q12866 527-999): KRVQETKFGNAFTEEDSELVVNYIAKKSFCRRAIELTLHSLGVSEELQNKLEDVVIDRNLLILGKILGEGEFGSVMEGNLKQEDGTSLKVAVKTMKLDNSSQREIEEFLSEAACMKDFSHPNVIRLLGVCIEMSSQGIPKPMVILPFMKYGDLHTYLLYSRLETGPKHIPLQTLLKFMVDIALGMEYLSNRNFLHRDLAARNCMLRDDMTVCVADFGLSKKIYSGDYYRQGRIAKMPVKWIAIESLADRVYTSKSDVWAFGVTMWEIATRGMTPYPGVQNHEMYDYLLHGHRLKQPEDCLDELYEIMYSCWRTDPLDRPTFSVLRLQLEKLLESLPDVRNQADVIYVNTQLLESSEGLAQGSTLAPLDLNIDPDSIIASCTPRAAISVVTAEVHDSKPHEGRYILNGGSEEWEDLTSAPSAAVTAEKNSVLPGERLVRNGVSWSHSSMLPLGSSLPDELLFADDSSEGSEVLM
Method in brief: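 Percent of control, derived from ratiometric TR-FRET emission, was fitted to a 4-parameter logistic curve and IC50 taken at 50 POC. Binding was read after 60 min at 22 °C using Eu-based LanthaScreen technology and recombinant His-tagged MER cytoplasmic domain.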

His-tagged recombinant human AXL cytoplasmic domain, sequence (P30530 473-894): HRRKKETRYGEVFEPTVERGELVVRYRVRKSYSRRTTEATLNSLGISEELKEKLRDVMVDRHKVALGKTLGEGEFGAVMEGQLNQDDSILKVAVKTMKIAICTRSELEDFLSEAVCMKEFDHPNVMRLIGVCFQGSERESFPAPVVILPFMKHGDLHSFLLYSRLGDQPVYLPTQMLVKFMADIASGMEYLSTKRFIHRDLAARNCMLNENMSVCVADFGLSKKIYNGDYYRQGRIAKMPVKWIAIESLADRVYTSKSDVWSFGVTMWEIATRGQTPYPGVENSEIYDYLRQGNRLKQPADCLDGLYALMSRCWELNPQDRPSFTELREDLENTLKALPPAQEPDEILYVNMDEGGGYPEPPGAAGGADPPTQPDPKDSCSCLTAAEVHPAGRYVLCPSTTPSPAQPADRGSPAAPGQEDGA

IC50 [1] [µM]	IC50 [2] [µM]	IC50 [3] [µM]	SMILES
< 0.01	< 0.01	< 0.01	CCNc1cc2c(cn1)c(-c1ccn(C)c(=O)c1)nn2[C@H]1CC[C@@H](Oc2cccnc2C(F)(F)F)CC1 [Example 219, 4-(6-(ethylamino)-1-((1s,4s)-4-((2-(trifluoromethyl)pyridin-3-yl)oxy)cyclohexyl)-1H-pyrazolo[4,3-c]pyridin-3-yl)-1-methylpyridin-2(1H)-one hydrochloride]
< 0.01	< 0.01	< 0.01	CCNc1cc2c(cn1)c(-c1cnn(C(C)(C)C#N)c1)nn2[C@H]1CC[C@@H](Oc2cccnc2C(F)(F)F)CC1 [Example 164, 2-(4-(6-(ethylamino)-1-((1s,4s)-4-((2-(trifluoromethyl)pyridin-3-yl)oxy)cyclohexyl)-1H-pyrazolo[4,3-c]pyridin-3-yl)-1H-pyrazol-1-yl)-2-methylpropanenitrile]
< 0.01	0.01 to 0.1	< 0.01	CCNc1cc2c(cn1)c(N1CCC(N3CCN(C)CC3)CC1)nn2[C@H]1CC[C@@H](Oc2nccc(C(F)(F)F)c2F)CC1 [Example 489, N-ethyl-1-((1s,4s)-4((3-fluoro-4-(trifluoromethyl)pyridin-2-yl)oxy)cyclohexyl)-3-(4-(4-methylpiperazin-1-yl)piperidin-1-yl)-1H-pyrazolo[4,3-c]pyridin-6-amine]
< 0.01	0.01 to 0.1	< 0.01	CCNc1cc2c(cn1)c(-c1ccc(CN3CCN(C)CC3)cc1)nn2[C@H]1CC[C@@H](Oc2cnn(C)c2C(F)(F)F)CC1 [Example 293, N-ethyl-1-((1s,4s)-4-((1-methyl-5-(trifluoromethyl)-1H-pyrazol-4-yl)oxy)cyclohexyl)-3-(4-((4-methylpiperazin-1-yl)methyl)phenyl)-1H-pyrazolo[4,3-c]pyridin-6-amine]
< 0.01	< 0.01	< 0.01	CCNc1cc2c(cn1)c(-c1cnn(C)c1)nn2[C@H]1CC[C@@H](Oc2cccc(C#N)c2F)CC1 [Example 497]
< 0.01	0.01 to 0.1	< 0.01	CCNc1cc2c(cn1)c(-c1ccc(=O)n(C)c1)nn2[C@H]1CC[C@@H](Oc2nccc(C(F)(F)F)c2F)CC1 [Example 298, 5-(6-(ethylamino)-1-((1s,4s)-4-((3-fluoro-4-(trifluoromethyl)pyridin-2-yl)oxy)cyclohexyl)-1H-pyrazolo[4,3-c]pyridin-3-yl)-1-methylpyridin-2(1H)-one]
1 to 10	1 to 10	1 to 10	CCNc1cc2c(cn1)c(-c1ncco1)nn2[C@H]1CC[C@@H](Oc2ccc(=O)n(C)n2)CC1 [Example 81, 6-(((1s,4s)-4-(6-(ethylamino)-3-(oxazol-2-yl)-1H-pyrazolo[4,3-c]pyridin-1-yl)cyclohexyl)oxy)-2-methylpyridazin-3(2H)-one bis(2,2,2-trifluoroacetate)]
< 0.01	< 0.01	< 0.01	CNc1cc2c(cn1)c(-c1cnn(C[C@H](N)CO)c1)nn2[C@H]1CC[C@@H](Oc2ccccc2F)CC1 [Example 433, (S)-2-amino-3-(4-(1-((1s,4S)-4-(2-fluorophenoxy)cyclohexyl)-6-(methylamino)-1H-pyrazolo[4,3-c]pyridin-3-yl)-1H-pyrazol-1-yl)propan-1-ol]
< 0.01	0.01 to 0.1	< 0.01	CCNc1cc2c(cn1)c(C1CCNC1)nn2[C@H]1CC[C@@H](Oc2nccc(C(F)(F)F)c2F)CC1 (stereo partly drawn) [Example 320, N-ethyl-1-((1s,4s)-4-((3-fluoro-4-(trifluoromethyl)pyridin-2-yl)oxy)cyclohexyl)-3-(pyrrolidin-3-yl)-1H-pyrazolo[4,3-c]pyridin-6-amine]
< 0.01	< 0.01	< 0.01	CCNc1cc2c(cn1)c(-c1ccc3c(c1)CN(C)S3(=O)=O)nn2[C@H]1CC[C@@H](Oc2cn(C)nc2C(F)(F)F)CC1 [Example 222, 5-(6-(ethylamino)-1-((1s,4s)-4-((1-methyl-3-(trifluoromethyl)-1H-pyrazol-4-yl)oxy)cyclohexyl)-1H-pyrazolo[4,3-c]pyridin-3-yl)-2-methyl-2,3-dihydrobenzo[d]isothiazole 1,1-dioxide]
< 0.01	< 0.01	< 0.01	CNc1cc2c(cn1)c(-c1ccc(CN3CCN(C)CC3)cc1)nn2[C@H]1CC[C@@H](Oc2cn(C)nc2C(F)(F)F)CC1 [Example 285, N-methyl-1-((1s,4s)-4-((1-methyl-3-(trifluoromethyl)-1H-pyrazol-4-yl)oxy)cyclohexyl)-3-(4-((4-methylpiperazin-1-yl)methyl)phenyl)-1H-pyrazolo[4,3-c]pyridin-6-amine]
< 0.01	0.01 to 0.1	< 0.01	CNC(=O)c1ccc(O[C@H]2CC[C@@H](n3nc(-c4cnn(C)c4)c4cnc(NC)cc43)CC2)c(C(F)(F)F)c1 [Example 393, N-methyl-4-(((1s,4s)-4-(3-(1-methyl-1H-pyrazol-4-yl)-6-(methylamino)-1H-pyrazolo[4,3-c]pyridin-1-yl)cyclohexyl)oxy)-3-(trifluoromethyl)benzamide]
< 0.01	< 0.01	< 0.01	CNc1cc2c(cn1)c(-c1cnn(C)c1)nn2[C@H]1CC[C@@H](Oc2cn(C)nc2C(F)(F)F)CC1 [Example 162, N-methyl-3-(1-methyl-1H-pyrazol-4-yl)-1-((1s,4s)-4-((1-methyl-3-(trifluoromethyl)-1H-pyrazol-4-yl)oxy)cyclohexyl)-1H-pyrazolo[4,3-c]pyridin-6-amine]
< 0.01	0.01 to 0.1	< 0.01	CCNc1cc2c(cn1)c(-c1cnn(C[C@@H](O)CO)c1)nn2[C@H]1CC[C@@H](Oc2cccc(Cl)c2Cl)CC1 [Example 439]
< 0.01	< 0.01	< 0.01	CCNc1cc2c(cn1)c(-c1cnn(CC(CO)CO)c1)nn2[C@H]1CC[C@@H](Oc2cccnc2C(F)(F)F)CC1 [Example 205, 2-((4-(6-(ethylamino)-1-((1s,4s)-4-((2-(trifluoromethyl)pyridin-3-yl)oxy)cyclohexyl)-1H-pyrazolo[4,3-c]pyridin-3-yl)-1H-pyrazol-1-yl)methyl)propane-1,3-diol]
< 0.01	0.01 to 0.1	< 0.01	CCNc1cc2c(cn1)c(-c1cnn(C(C)(C)CO)c1)nn2[C@H]1CC[C@@H](Oc2nccc(C(F)(F)F)c2F)CC1 [Example 299, 2-(4-(6-(ethylamino)-1-((1s,4s)-4-((3-fluoro-4-(trifluoromethyl)pyridin-2-yl)oxy)cyclohexyl)-1H-pyrazolo[4,3-c]pyridin-3-yl)-1H-pyrazol-1-yl)-2-methylpropan-1-ol]
< 0.01	< 0.01	< 0.01	CCNc1cc2c(cn1)c(-c1cnn(C[C@@H](O)CO)c1)nn2[C@H]1CC[C@@H](Oc2cccc(F)c2F)CC1 [Example 429, (R)-3-(4-(1-((1s,4S)-4-(2,3-difluorophenoxy)cyclohexyl)-6-(ethylamino)-1H-pyrazolo[4,3-c]pyridin-3-yl)-1H-pyrazol-1-yl)propane-1,2-diol]
< 0.01	0.01 to 0.1	< 0.01	CCNc1cc2c(cn1)c(N1CC[C@H](NC)C1)nn2[C@H]1CC[C@@H](Oc2cccc(C(F)(F)F)c2F)CC1 [Example 491, N-ethyl-1-((1s,4R)-4-(2-fluoro-3-(trifluoromethyl)phenoxy)cyclohexyl)-3-((S)-3-(methylamino)pyrrolidin-1-yl)-1H-pyrazolo[4,3-c]pyridin-6-amine]
< 0.01	0.01 to 0.1	< 0.01	CCNc1cc2c(cn1)c(-c1cnn(C[C@@H](O)C(C)(C)O)c1)nn2[C@H]1CC[C@@H](Oc2nccc(C(F)(F)F)c2F)CC1 [Example 237, (R)-1-(4-(6-(ethylamino)-1-((1s,4R)-4-((3-fluoro-4-(trifluoromethyl)pyridin-2-yl)oxy)cyclohexyl)-1H-pyrazolo[4,3-c]pyridin-3-yl)-1H-pyrazol-1-yl)-3-methylbutane-2,3-diol]
< 0.01	< 0.01	< 0.01	CCNc1cc2c(cn1)c(-c1cnn(C)c1)nn2[C@H]1CC[C@@H](Oc2cccnc2F)CC1 [Example 183, N-ethyl-1-((1s,4s)-4-((2-fluoropyridin-3-yl)oxy)cyclohexyl)-3-(1-methyl-1H-pyrazol-4-yl)-1H-pyrazolo[4,3-c]pyridin-6-amine]
< 0.01	< 0.01	< 0.01	CCNc1cc2c(cn1)c(-c1cnn(C[C@@H](O)CO)c1)nn2[C@H]1CC[C@@H](Oc2cccnc2C(F)(F)F)CC1 [Example 209, ®-3-(4-(6-(ethylamino)-1-((1s,4R)-4-((2-(trifluoromethyl)pyridin-3-yl)oxy)cyclohexyl)-1H-pyrazolo[4,3-c]pyridin-3-yl)-1H-pyrazol-1-yl)propane-1,2-diol]
< 0.01	0.01 to 0.1	< 0.01	CCNc1cc2c(cn1)c(N1CC[C@H](N(C)C)C1)nn2[C@H]1CC[C@@H](Oc2nccc(C(F)(F)F)c2F)CC1 [Example 335, 3-((S)-3-(dimethylamino)pyrrolidin-1-yl)-N-ethyl-1-((1s,4R)-4-((3-fluoro-4-(trifluoromethyl)pyridin-2-yl)oxy)cyclohexyl)-1H-pyrazolo[4,3-c]pyridin-6-amine]
< 0.01	0.01 to 0.1	< 0.01	CNc1cc2c(cn1)c(-c1cnn(C)c1)nn2[C@H]1CC[C@@H](Oc2cc(Cl)cnc2C#N)CC1 [Example 175, 5-chloro-3-(((1s,4s)-4-(3-(1-methyl-1H-pyrazol-4-yl)-6-(methylamino)-1H-pyrazolo[4,3-c]pyridin-1-yl)cyclohexyl)oxy)picolinonitrile]
